Values after ≈ are worked out from the molar mass of the structure shown.
How the values were obtained:
Staphylococcus aureus [1] = experiment: Antibacterial activity against methicillin-resistant Staphylococcus aureus assessed as bacterial growth inhibition measured after 24 hrs by two fold serial dilution technique; format: functional
Escherichia coli [2] = experiment: Antibacterial activity against Escherichia coli assessed as bacterial growth inhibition measured after 24 hrs by two fold serial dilution technique; format: functional
Staphylococcus aureus [3] = experiment: Antibacterial activity against Staphylococcus aureus ATCC 29213 assessed as bacterial growth inhibition measured after 24 hrs by two fold serial dilution technique; format: functional
[4] = Hemolytic activity in human RBC assessed as hemolysis incubated for 1 hr; format: toxicity, cell-based, Erythrocyte; details: red blood cells
Staphylococcus aureus [5] = experiment: Antibacterial activity against Staphylococcus aureus ATCC 25923 assessed as bacterial growth inhibition measured after 24 hrs by two fold serial dilution technique; format: functional
Escherichia coli [6] = experiment: Antibacterial activity against Escherichia coli ATCC 25922 assessed as bacterial growth inhibition measured after 24 hrs by two fold serial dilution technique; format: functional
Enterococcus faecium = experiment: Antibacterial activity against Enterococcus faecium assessed as bacterial growth inhibition measured after 24 hrs by two fold serial dilution technique; format: functional
Pseudomonas aeruginosa [7] = experiment: Antibacterial activity against Pseudomonas aeruginosa assessed as bacterial growth inhibition measured after 24 hrs by two fold serial dilution technique; format: functional
Staphylococcus aureus [8] = experiment: Antibacterial activity against Staphylococcus aureus assessed as bacterial growth inhibition measured after 24 hrs by two fold serial dilution technique; format: functional
Klebsiella pneumoniae = experiment: Antibacterial activity against Klebsiella pneumoniae assessed as bacterial growth inhibition measured after 24 hrs by two fold serial dilution technique; format: functional
Pseudomonas aeruginosa [9] = experiment: Antibacterial activity against Pseudomonas aeruginosa ATCC 27853 assessed as bacterial growth inhibition measured after 24 hrs by two fold serial dilution technique; format: functional
Acinetobacter baumannii = experiment: Antibacterial activity against Acinetobacter baumannii assessed as bacterial growth inhibition measured after 24 hrs by two fold serial dilution technique; format: functional

Row | SMILES | MIC (Staphylococcus aureus [1]) [µg/mL] | MIC (Escherichia coli [2]) [µg/mL] | MIC (Staphylococcus aureus [3]) [µg/mL] | HC50 at 1 h [4] [µg/mL] | MIC (Staphylococcus aureus [5]) [µg/mL] | MIC (Escherichia coli [6]) [µg/mL] | MIC (Enterococcus faecium) [µg/mL] | MIC (Pseudomonas aeruginosa [7]) [µg/mL] | MIC (Staphylococcus aureus [8]) [µg/mL] | MIC (Klebsiella pneumoniae) [µg/mL] | MIC (Pseudomonas aeruginosa [9]) [µg/mL] | MIC (Acinetobacter baumannii) [µg/mL]
1 | CCON1C(=O)c2cccc3c(N4CCN(C(=O)/C(=N\OC)c5csc(N)n5)CC4)ccc(c23)C1=O | 8 (≈ 15.7 µM) | 64 (≈ 126 µM) | 32 (≈ 62.9 µM) | 509 | 64 (≈ 126 µM) | 64 (≈ 126 µM) | 8 (≈ 15.7 µM) | 64 (≈ 126 µM) | 128 (≈ 252 µM) | 16 (≈ 31.5 µM) | 32 (≈ 62.9 µM) | 2 (≈ 3.93 µM)
2 | CO/N=C(\C(=O)N1CCN(c2ccc3c4c(cccc24)C(=O)N(NC(C)=O)C3=O)CC1)c1csc(N)n1 | 4 (≈ 7.67 µM) | 4 (≈ 7.67 µM) | 32 (≈ 61.4 µM) | 180 | 64 (≈ 123 µM) | 64 (≈ 123 µM) | 32 (≈ 61.4 µM) | 32 (≈ 61.4 µM) | 64 (≈ 123 µM) | 32 (≈ 61.4 µM) | 32 (≈ 61.4 µM) | 16 (≈ 30.7 µM)
3 | CO/N=C(\C(=O)N1CCN(c2ccc3c4c(cccc24)C(=O)N(C)C3=O)CC1)c1csc(N)n1 | 4 (≈ 8.36 µM) | 32 (≈ 66.9 µM) | 16 (≈ 33.4 µM) | 343 | 64 (≈ 134 µM) | 64 (≈ 134 µM) | 8 (≈ 16.7 µM) | 64 (≈ 134 µM) | 16 (≈ 33.4 µM) | 8 (≈ 16.7 µM) | 32 (≈ 66.9 µM) | 8 (≈ 16.7 µM)
4 | CO/N=C(\C(=O)N1CCN(c2ccc3c4c(cccc24)C(=O)N(CC(=O)O)C3=O)CC1)c1csc(N)n1 | 64 (≈ 122 µM) | 32 (≈ 61.2 µM) | 64 (≈ 122 µM) | 1000 | 128 (≈ 245 µM) | 64 (≈ 122 µM) | 64 (≈ 122 µM) | 16 (≈ 30.6 µM) | 256 (≈ 490 µM) | 128 (≈ 245 µM) | 64 (≈ 122 µM) | 32 (≈ 61.2 µM)
5 | CO/N=C(\C(=O)N1CCN(c2ccc3c4c(cccc24)C(=O)N(c2ncc(C)s2)C3=O)CC1)c1csc(N)n1 | 8 (≈ 14.2 µM) | 128 (≈ 228 µM) | 64 (≈ 114 µM) | 234 | 128 (≈ 228 µM) | 16 (≈ 28.5 µM) | 64 (≈ 114 µM) | 64 (≈ 114 µM) | 128 (≈ 228 µM) | 1 (≈ 1.78 µM) | 32 (≈ 57 µM) | 128 (≈ 228 µM)
6 | CO/N=C(\C(=O)N1CCN(c2ccc3c4c(cccc24)C(=O)N(C(CO)CO)C3=O)CC1)c1csc(N)n1 | 4 (≈ 7.43 µM) | 4 (≈ 7.43 µM) | 32 (≈ 59.4 µM) | 232 | 16 (≈ 29.7 µM) | 64 (≈ 119 µM) | 64 (≈ 119 µM) | 32 (≈ 59.4 µM) | 64 (≈ 119 µM) | 128 (≈ 238 µM) | 32 (≈ 59.4 µM) | 32 (≈ 59.4 µM)
7 | CCCCN1C(=O)c2cccc3c(N4CCN(C(=O)/C(=N\OC)c5csc(N)n5)CC4)ccc(c23)C1=O | 8 (≈ 15.4 µM) | 32 (≈ 61.5 µM) | 64 (≈ 123 µM) | 563 | 128 (≈ 246 µM) | 64 (≈ 123 µM) | 16 (≈ 30.7 µM) | 64 (≈ 123 µM) | 64 (≈ 123 µM) | 64 (≈ 123 µM) | 64 (≈ 123 µM) | 8 (≈ 15.4 µM)
8 | CO/N=C(\C(=O)N1CCN(c2ccc3c4c(cccc24)C(=O)N(N)C3=O)CC1)c1csc(N)n1 | 4 (≈ 8.34 µM) | 2 (≈ 4.17 µM) | 64 (≈ 133 µM) | 250 | 32 (≈ 66.7 µM) | 64 (≈ 133 µM) | 32 (≈ 66.7 µM) | 16 (≈ 33.4 µM) | 64 (≈ 133 µM) | 32 (≈ 66.7 µM) | 32 (≈ 66.7 µM) | 32 (≈ 66.7 µM)
9 | CO/N=C(\C(=O)N1CCN(c2ccc3c4c(cccc24)C(=O)N(NCCO)C3=O)CC1)c1csc(N)n1 | 4 (≈ 7.64 µM) | 2 (≈ 3.82 µM) | 64 (≈ 122 µM) | 325 | 8 (≈ 15.3 µM) | 128 (≈ 244 µM) | 64 (≈ 122 µM) | 32 (≈ 61.1 µM) | 64 (≈ 122 µM) | 16 (≈ 30.6 µM) | 32 (≈ 61.1 µM) | 16 (≈ 30.6 µM)
10 | CO/N=C(\C(=O)N1CCN(c2ccc3c4c(cccc24)C(=O)N(C2CCCC2)C3=O)CC1)c1csc(N)n1 | 8 (≈ 15 µM) | 64 (≈ 120 µM) | 32 (≈ 60.1 µM) | 278 | 64 (≈ 120 µM) | 64 (≈ 120 µM) | 16 (≈ 30 µM) | 64 (≈ 120 µM) | 64 (≈ 120 µM) | 32 (≈ 60.1 µM) | 32 (≈ 60.1 µM) | 8 (≈ 15 µM)
11 | CO/N=C(\C(=O)N1CCN(c2ccc3c4c(cccc24)C(=O)N(C2CCCCC2)C3=O)CC1)c1csc(N)n1 | 16 (≈ 29.3 µM) | 64 (≈ 117 µM) | 64 (≈ 117 µM) | 257 | 128 (≈ 234 µM) | 64 (≈ 117 µM) | 16 (≈ 29.3 µM) | 128 (≈ 234 µM) | 64 (≈ 117 µM) | 16 (≈ 29.3 µM) | 64 (≈ 117 µM) | 8 (≈ 14.6 µM)
12 | CN(C)[C@@H]1C(O)=C(C(N)=O)C(=O)[C@@]2(O)C(O)=C3C(=O)c4c(O)cccc4[C@@](C)(O)[C@H]3C[C@@H]12 [TETRACYCLINE] | 1 (≈ 2.25 µM) | 0.25 (≈ 0.563 µM) | 4 (≈ 9 µM) |  | 4 (≈ 9 µM) | 1 (≈ 2.25 µM) | 2 (≈ 4.5 µM) | 0.25 (≈ 0.563 µM) | 1 (≈ 2.25 µM) | 16 (≈ 36 µM) | 64 (≈ 144 µM) | 0.25 (≈ 0.563 µM)
13 | O=C(O)c1cn(C2CC2)c2cc(N3CCNCC3)c(F)cc2c1=O [CIPROFLOXACIN] | 4 (≈ 12.1 µM) |  | 8 (≈ 24.1 µM) |  | 0.5 (≈ 1.51 µM) |  | 2 (≈ 6.04 µM) |  | 2 (≈ 6.04 µM) | 2 (≈ 6.04 µM) |  | 2 (≈ 6.04 µM)

Source: ChEMBL document CHEMBL5042496, “An unanticipated discovery towards novel naphthalimide corbelled aminothiazoximes as potential anti-MRSA agents and allosteric modulators for PBP2a” (Eur J Med Chem, 2022)
